# In article PMC6013495, “Development of a Novel Backbone Cyclic Peptide Inhibitor of the Innate Immune TLR/IL1R Signaling Protein MyD88” (Scientific Reports, 2018):
# Numbered stars: 1 amine (or outer) side, 2 acyl side, 3 side chain; on linkers, the order of the positions; unused ones are H or OH. Bridge positions count the residues as written; N and C are the ends. Square brackets hold non-standard residues; d marks the D form. Ends that are not written are not given here. Peptide text beside a SMILES is read from it. N(6-aminohexyl)Gly = O=C(CN(CCCCCCN[*:3])[*:1])[*:2]; CO = O=C([*:1])[*:2]; Nlys = NCCCCNCC(=O)O
# B1: Biotinylated linear BB loop peptide RDVLPGT (Biotin-MyDI) (peptide)
# peptide: RDVLPGT
# modifications: also: biotinylated, position not given here
# notes: MyD88 BB loop heptamer; also called Biotinylated RDVLPGT; source: bought: Bio Basic Inc
# B2: MyD88 inhibitor peptide (MyDI, RDVLPGT), unlabeled linear BB loop peptide (peptide)
# peptide: RDVLPGT-NH2
# notes: MyD88 BB loop heptamer; also called non-biotinylated linear peptide; MyD88 BB-loop decoy peptide; source: synthetic peptide (Fmoc chemistry on Rink amide MBHA resin, HPLC purified)
# Legend:
# [1] = system: THP-1 cells, TLR2 ligand Pam3CSK4; assay: hTNFα production by THP-1 macrophages stimulated with Pam3CSK4 (TLR2); type: cell-based, human; conditions: THP-1, inhibitors 3 hr before Pam3CSK4, 24 h, ELISA
# Experimental: MyD88 function depends on dimerization through the TIR domain[37]. The RDVLPGT peptide corresponds to the region between the βB strand and the αB helix[18] […] We screened a library of backbone cyclized peptides to identify a metabolically stable derivative of the BB loop peptide that retains the binding and functional properties of the parent peptide. The library was designed using two non-natural building blocks as previously reported. […] Tryptophan was added to the N-terminal AGBU for quantification purposes (Fig. 1). […]
# Figure 3 c(MyD 4-4) blocks TLR-mediated macrophage activation. (A) THP-1 cells were treated with inhibitors for 3 hr prior to activation with the TLR2 ligand Pam3CSK4 200 pg/ml for 24 h. hTNFα levels were determined by ELISA. […] (B,C) Luminescence levels from the NFκB-luc murine RAW264.7 cells. […] NFκB-luc RAW264.7 cells were treated with inhibitors for 24 hr and then cells were stimulated with Pam3CSK4 (10 ng/ml) (C) or LPS (50 ng/ml) (D) for 4 hr and luminescence levels were determined. […] Human (h) TNFα levels were determined by ELISA at 24 hr. (F,G) NFκB-luc RAW264.7 cells were treated with the indicated compounds for 24 hr and then stimulated with Pam3CSK4 (F) or LPS (G) for 4 hr after which luminescence was determined. […]
# (§1) Cytokines were determined using human/mouse OptEIA sets (BD Biosciences, CA, USA) according to the manufacturer’s instructions.
# [2] = system: THP-1 cells, TLR4 ligand LPS; assay: hTNFα production by THP-1 macrophages stimulated with LPS (TLR4); type: cell-based, human; conditions: THP-1, compound 3 hr before LPS, 24 hr, ELISA
# Experimental: Figure 3 c(MyD 4-4) blocks TLR-mediated macrophage activation. (A) THP-1 cells were treated with inhibitors for 3 hr prior to activation with the TLR2 ligand Pam3CSK4 200 pg/ml for 24 h. hTNFα levels were determined by ELISA. One representative experiment of three independent experiments is shown. Asterisks represent the significance between treated cells and untreated Pam3CSK4-stimulated control. Asterisks above a cross bar represent the comparison between treatment with c(MyD 4-4) and treatment with MyDI. (B,C) Luminescence levels from the NFκB-luc murine RAW264.7 cells. The different conditions were set according to preliminary assays of each cell line. NFκB-luc RAW264.7 cells were treated with inhibitors for 24 hr and then cells were stimulated with Pam3CSK4 (10 ng/ml) (C) or LPS (50 ng/ml) (D) for 4 hr and luminescence levels were determined. One representative experiment of three independent experiments is shown. […] Human (h) TNFα levels were determined by ELISA at 24 hr. (F,G) NFκB-luc RAW264.7 cells were treated with the indicated compounds for 24 hr and then stimulated with Pam3CSK4 (F) or LPS (G) for 4 hr after which luminescence was determined. […]
# as §1
# RAW264.7 NFκB-luc cells = assay: Viability of NFκB-luc RAW264.7 cells; type: cell-based, mouse; conditions: 24 hr treatment
# THP-1 macrophages = type: cell-based, human
# Excerpt: MyD88 function depends on dimerization through the TIR domain[37]. The RDVLPGT peptide corresponds to the region between the βB strand and the αB helix[18] […] We screened a library of backbone cyclized peptides to identify a metabolically stable derivative of the BB loop peptide that retains the binding and functional properties of the parent peptide. The library was designed using two non-natural building blocks as previously reported. The method, called cycloscan, is based on the concept of screening focused backbone cyclic libraries with spatial diversity that maintain the original side chains of the active region in the protein (RDVLPGT), Backbone cyclization combines N-alkylation with cyclization. In the case of the MyD88 BB-loop decoy peptide RDVLPGT, the tertiary amide bond preceding proline served as one of the anchor sites and was therefore replaced by an N-Alkylated glycine building unit (AGBU) to allow backbone cyclization to the second AGBU at the N-terminus (Fig. 1). Tryptophan was added to the N-terminal AGBU for quantification purposes (Fig. 1). Following the above procedure 16 backbone cyclic peptides were prepared with various ring size and position of the urea bridge in the ring (Table S1). To screen the library, human THP-1 macrophages were pre-treated with the cyclic peptides and then stimulated with Pam3CSK4, a synthetic TLR2/1 lipopeptide agonist.
# [3] = Peptide stability in rat plasma; type: in vitro ADME; conditions: fresh plasma of male Wistar rats, 37 °C, HPLC-MS, triplicate; for stability in plasma: 10 µg/ml, up to 240 min
# Experimental: (§2) The linear peptide and c(MyD 4-4) (10 µg/ml) were mixed with fresh plasma from male Wistar rats (Harlan, Israel) and incubated at 37 °C for 240 min. Triplicate samples were taken at time 0 and after 5, 30, 60, 120, 180 and 240 min. Rat brush border membrane vesicles (BBMV) were prepared by Ca^2+ precipitation from the combined duodenum, jejunum, and upper ileum of male rats as described[41],[42]. Briefly, intestines were washed with ice cold saline and separated from mucus. The intestinal mucosa was separated from the luminal surface and placed immediately into buffer containing […] KCl and 10 mM Tris–HCl (pH 7.5, 4 °C). The samples were then homogenated (Polytron PT 1200, Kinematica AG, Switzerland) and 10 mM CaCl2 was added. The homogenate was placed on a shaker for 30 min at 4 °C and then centrifuged 10,000 g for 10 min. The supernatant was separated and centrifuged at 48,000 g for 30 min and an additional two purification steps were undertaken by suspending the pellet in 300 mM mannitol and 10 mM Hepes/Tris (pH 7.5) and centrifuging at 24,000 g/h. The quality of the BBMV purification was tested using the brush border membrane enzyme markers gamma-glutamyl transpeptidase (GGT), leucine amino peptidase (LAP) and alkaline phosphatase (Sigma-Aldrich, St Louis, MO). Peptides were mixed with purified BBMVs in MES buffer (2-(N-morpholino)ethanesulfonic acid, 50 mM pH 7.4) and incubated at 37 °C for 120 min. Triplicate samples were taken at time 0 and after 15, 30, 45, 60, 90, and 120 min.
# To determine the concentration of the compounds, experimental samples were diluted 1:1 with ice-cold acetonitrile and centrifuged (11000 RPM, 10 min). The supernatant was separated and evaporated (Vacuum Evaporation System, Labconco, Kansas City, MO). Samples were reconstituted with acetonitrile: water 70:30 and then centrifuged (11000 RPM, 10 min). The amount of the compounds was determined using high performance liquid chromatography mass spectrometry (HPLC-MS) Waters 2695 Separation Module, equipped with Micromass ZQ detector. The resulting solution (100 μl) was injected into the HPLC system. […]
# [4] = Peptide stability in brush border membrane vesicles (BBMVs); type: in vitro ADME; conditions: rat intestinal BBMVs in MES buffer 50 mM pH 7.4, 37 °C, HPLC-MS, triplicate
# Experimental: as §2, with “The quality of the BBMV purification was tested using the brush border membrane enzyme markers gamma-glutamyl transpeptidase (GGT), leucine amino peptidase (LAP) and alkaline phosphatase (Sigma-Aldrich, St Louis, MO). Peptides were mixed with purified BBMVs in MES buffer (2-(N-morpholino)ethanesulfonic acid, 50 mM pH 7.4) and incubated at 37 °C for 120 min. Triplicate samples were taken at time 0 and after 15, 30, 45, 60, 90, and 120 min.” left out
# To determine the concentration of the compounds, experimental samples were diluted 1:1 with ice-cold acetonitrile and centrifuged (11000 RPM, 10 min). […] The amount of the compounds was determined using high performance liquid chromatography mass spectrometry (HPLC-MS) Waters 2695 Separation Module, equipped with Micromass ZQ detector. […]
# [5] = molecular target: T1, recombinant fusion protein SUMO-MyD88-TIR (human MyD88 TIR domain, aa 150-296, fused to SUMO) (human, UniProt Q99836 150-296); assay: ELISA; SUMO fusion protein attached to ELISA plate wells; biotinylated peptide added at several concentrations; conditions: both partners purified
# T1 construct: MyD88, human, TIR domain residues 150-296; Cloned with BamH/XhoI into the pETM-11 SUMO3GFP fusion vector; also called recombinant MyD88 TIR domain; Recombinant MyD88 TIR protein; source: E. coli BL21 C43 (DE3), purified (HIS-select Nickel Magnetic agarose beads, eluted with 300 mM imidazole)
# T1 sequence (Q99836 150-296): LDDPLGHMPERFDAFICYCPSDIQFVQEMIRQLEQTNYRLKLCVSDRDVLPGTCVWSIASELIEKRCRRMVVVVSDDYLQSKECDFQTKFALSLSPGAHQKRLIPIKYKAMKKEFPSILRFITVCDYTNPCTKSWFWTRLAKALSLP
# [6] = molecular target: T1, recombinant fusion protein …; assay: ELISA; competitive binding: SUMO-MyD88-TIR (8 µg/ml) attached to polystyrene plates at 4 °C overnight, blocked with 1% BSA in PBS; 125 µM Biotin-MyDI together with 10, 1, 0.1 or 0 µM competitor for 30 min; Streptavidin-HRP, absorbance at 450 nm; conditions: both partners purified
molecule,measurement,setting,value
NC(=O)[C@H]1CCS[C@@H]2C[C@]3(CCCN3C(=O)Cc3ccc(NC(=O)COc4ccc(Cl)cc4Cl)cc3)C(=O)N12 [ST2825],inhibition of hTNFα production,[1],did not block
same,inhibition of hTNFα production,[2],did not block
same,cytotoxicity,RAW264.7 NFκB-luc cells,highly cytotoxic
CC(C)C[C@@H]1NC(=O)[C@H](C(C)C)NC(=O)[C@H](CC(=O)O)NC(=O)[C@H](CCCNC(=N)N)NC(=O)CN(C(=O)[C@@H](N)Cc2c[nH]c3ccccc23)CCCCCCNC(=O)NCCCCCCN(CC(=O)NCC(=O)N[C@H](C(N)=O)[C@@H](C)O)C1=O [c(MyD6x6)] (H-W[N(6-aminohexyl)Gly]RDVL[N(6-aminohexyl)Gly]GT-NH2; linker 2-7 via CO),cytotoxicity,THP-1 macrophages,without causing cytotoxicity
CC(C)C[C@@H]1NC(=O)[C@H](C(C)C)NC(=O)[C@H](CC(=O)O)NC(=O)[C@H](CCCNC(=N)N)NC(=O)CN(C(=O)[C@@H](N)Cc2c[nH]c3ccccc23)CCCCNC(=O)NCCCCN(CC(=O)NCC(=O)N[C@H](C(N)=O)[C@@H](C)O)C1=O [c(MyD 4-4)] (H-W[Nlys]RDVL[Nlys]GT-NH2; linker 2-7 via CO),stability in plasma,[3],highly stable
same,"remaining at 4 h, 10 µg/ml","[3]; rat, 240 minutes, mean, read-out: starting material detected after incubation in plasma",> 90%
same,remaining at 2 h,"[4]; male, intestinal brush border membrane vesicles (BBMVs), 2 h, mean, read-out: peptide recovered at end of incubation with BBMVs",~80%
same,cytotoxicity,THP-1 macrophages,without causing cytotoxicity
RDVLPGT-NH2 [MyDI],stability in plasma,[3],rapidly degraded
same,stability with BBMVs,[4]; up to 120 min,rapidly degraded
B1,binding result,[5],binds
B2,binding result,[6],binds
